Measurements from patent publication US9695155B2, “Herbicidal substituted pyrimidinyloxy benzene compounds” (E. I. DU PONT DE NEMOURS AND COMPANY, priority 2013, dated 2017).

Assays:
barnyardgrass [1] = assay: Test A preemergence; assay type: in vivo, Echinochloa crus-galli; conditions: for Barnyardgrass plant response rating: 500 g ai/ha
Procedure, shortened: (§1)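 Compounds in non-phytotoxic solvent with surfactant applied as soil spray preemergence, or postemergence to plants 2-10 cm at one- to two-leaf stage, in loam/sand. After approximately 10 days in greenhouse, injury rated visually versus untreated controls, 0 (no effect) to 100 (complete control).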

large (Lg) crabgrass [2] = assay: Test A preemergence; assay type: in vivo, Digitaria sanguinalis; conditions: for Crabgrass, Large plant response rating: 500 g ai/ha
Procedure, shortened: as §1

giant foxtail [3] = assay: Test A preemergence; assay type: in vivo, Setaria faberii; conditions: for Foxtail, Giant plant response rating: 500 g ai/ha
Procedure, shortened: as §1

morningglory [4] = assay: Test A preemergence; assay type: in vivo, Ipomoea spp.; conditions: for Morningglory plant response rating: 500 g ai/ha
Procedure, shortened: as §1

pigweed [5] = assay: Test A preemergence; assay type: in vivo, Amaranthus retroflexus; conditions: for Pigweed plant response rating: 500 g ai/ha
Procedure, shortened: as §1

velvetleaf [6] = assay: Test A preemergence; assay type: in vivo, Abutilon theophrasti; conditions: for Velvetleaf plant response rating: 500 g ai/ha
Procedure, shortened: as §1

wheat [7] = assay: Test A preemergence; assay type: in vivo, Triticum aestivum; conditions: for Wheat plant response rating: 500 g ai/ha
Procedure, shortened: as §1

corn [8] = assay: Test A preemergence; assay type: in vivo, Zea mays; conditions: for Corn plant response rating: 500 g ai/ha
Procedure, shortened: as §1

barnyardgrass [9] = assay: Test A postemergence; assay type: in vivo, Echinochloa crus-galli
Procedure, shortened: as §1

large (Lg) crabgrass [10] = assay: Test A postemergence; assay type: in vivo, Digitaria sanguinalis
Procedure, shortened: as §1

giant foxtail [11] = assay: Test A postemergence; assay type: in vivo, Setaria faberii
Procedure, shortened: as §1

morningglory [12] = assay: Test A postemergence; assay type: in vivo, Ipomoea spp.
Procedure, shortened: as §1

pigweed [13] = assay: Test A postemergence; assay type: in vivo, Amaranthus retroflexus
Procedure, shortened: as §1

velvetleaf [14] = assay: Test A postemergence; assay type: in vivo, Abutilon theophrasti
Procedure, shortened: as §1

wheat [15] = assay: Test A postemergence; assay type: in vivo, Triticum aestivum
Procedure, shortened: as §1

corn [16] = assay: Test A postemergence; assay type: in vivo, Zea mays
Procedure, shortened: as §1

rice = assay: Test B flooded paddy test; assay type: in vivo, Oryza sativa; conditions: Flood, 250 g ai/ha; 0 to 100 scale where 0 is no effect and 100 is complete control
Procedure, shortened: (§2)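 Evaluation is visual, against untreated controls, 13 to 15 days after treatment. Before treatment, plants reached the 2-leaf stage; pots were then flooded 3 cm deep, compound was added to the water, and that level was maintained. Ratings run 0 to 100, with 100 meaning complete control.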

sedge, umbrella = assay: Test B flooded paddy test; assay type: in vivo, Cyperus difformis; conditions: Flood, 250 g ai/ha; 0 to 100 scale where 0 is no effect and 100 is complete control
Procedure, shortened: as §2

Heteranthera limosa = assay: Test B flooded paddy test; assay type: in vivo; conditions: Flood, 250 g ai/ha; 0 to 100 scale where 0 is no effect and 100 is complete control
Procedure, shortened: as §2

barnyardgrass [17] = assay: Test B flooded paddy test; assay type: in vivo, Echinochloa crus-galli; conditions: Flood, 250 g ai/ha; 0 to 100 scale where 0 is no effect and 100 is complete control
Procedure, shortened: as §2

[18] = 125 g ai/ha, 0 to 100 scale where 0 is no effect and 100 is complete control
[19] = 0 to 100 scale, 0 no effect, 100 complete control, approx. 10 days
[20] = 500 g ai/ha, 0 to 100 scale, 0 no effect, 100 complete control
[21] = 0 to 100 scale where 0 is no effect and 100 is complete control
[22] = 500 g ai/ha, 0 to 100 scale where 0 is no effect and 100 is complete control
[23] = 125 g ai/ha, 0 to 100 scale, 0 no effect, 100 complete control

Clc1cnc(Oc2ccccc2-n2cnc(Br)n2)nc1 [Compound 46]
Plant response rating, Barnyardgrass (barnyardgrass [1]; [18]): 0 | Barnyardgrass plant response rating (barnyardgrass [1]; [19]): 20 | Plant response rating, Crabgrass, Large (large (Lg) crabgrass [2]; [18]): 20 | Crabgrass, Large plant response rating (large (Lg) crabgrass [2]; [19]): 100 | Plant response rating, Foxtail, Giant (giant foxtail [3]; [18]): 0 | Foxtail, Giant plant response rating (giant foxtail [3]; [19]): 80 | Plant response rating, Morningglory (morningglory [4]; [18]): 0 | Morningglory plant response rating (morningglory [4]; [19]): 0 | Plant response rating, Pigweed (pigweed [5]; [18]): 20 | Pigweed plant response rating (pigweed [5]; [19]): 90 | Plant response rating, Velvetleaf (velvetleaf [6]; [18]): 0 | Velvetleaf plant response rating (velvetleaf [6]; [19]): 0 | Plant response rating, Wheat (wheat [7]; [18]): 0 | Wheat plant response rating (wheat [7]; [19]): 0 | Plant response rating, Corn (corn [8]; [18]): 0 | Corn plant response rating (corn [8]; [19]): 0 | Plant response rating, Barnyardgrass (barnyardgrass [9]; [18]): 0 | Plant response rating, Barnyardgrass (barnyardgrass [9]; [20]): 20 | Plant response rating, Crabgrass, Large (large (Lg) crabgrass [10]; [18]): 0 | Plant response rating, Crabgrass, Large (large (Lg) crabgrass [10]; [20]): 20 | Plant response rating, Foxtail, Giant (giant foxtail [11]; [18]): 0 | Plant response rating, Foxtail, Giant (giant foxtail [11]; [20]): 20 | Plant response rating, Morningglory (morningglory [12]; [18]): 20 | Plant response rating, Morningglory (morningglory [12]; [20]): 50 | Plant response rating, Pigweed (pigweed [13]; [18]): 40 | Plant response rating, Pigweed (pigweed [13]; [20]): 80 | Plant response rating, Velvetleaf (velvetleaf [14]; [18]): 0 | Plant response rating, Velvetleaf (velvetleaf [14]; [20]): 40 | Plant response rating, Wheat (wheat [15]; [18]): 0 | Plant response rating, Wheat (wheat [15]; [20]): 0 | Plant response rating, Corn (corn [16]; [18]): 0 | Plant response rating, Corn (corn [16]; [20]): 30 | Plant response rating, Rice (rice): 0 | Plant response rating, Sedge, Umbrella (sedge, umbrella): 0 | Plant response rating, Ducksalad (Heteranthera limosa): 0 | Plant response rating, Barnyardgrass (barnyardgrass [17]): 0

Clc1cnc(Oc2cccc(Cl)c2-n2cc(Br)cn2)nc1 [Compound 219]
Barnyardgrass plant response rating (0 to 100 scale, 0 is no effect, 100 is complete control) (barnyardgrass [1]; 125 g ai/ha): 30 | Barnyardgrass plant response rating (barnyardgrass [1]; [21]): 90 | Crabgrass, Large plant response rating (0 to 100 scale) (large (Lg) crabgrass [2]; 125 g ai/ha): 100 | Crabgrass, Large plant response rating (large (Lg) crabgrass [2]; [21]): 100 | Foxtail, Giant plant response rating (0 to 100 scale) (giant foxtail [3]; 125 g ai/ha): 100 | Foxtail, Giant plant response rating (giant foxtail [3]; [21]): 100 | Morningglory plant response rating (0 to 100 scale) (morningglory [4]; 125 g ai/ha): 0 | Morningglory plant response rating (morningglory [4]; [21]): 10 | Pigweed plant response rating (0 to 100 scale) (pigweed [5]; 125 g ai/ha): 100 | Pigweed plant response rating (pigweed [5]; [21]): 100 | Velvetleaf plant response rating (0 to 100 scale) (velvetleaf [6]; 125 g ai/ha): 10 | Velvetleaf plant response rating (velvetleaf [6]; [21]): 20 | Wheat plant response rating (0 to 100 scale) (wheat [7]; 125 g ai/ha): 0 | Wheat plant response rating (wheat [7]; [21]): 0 | Corn plant response rating (0 to 100 scale) (corn [8]; 125 g ai/ha): 0 | Corn plant response rating (corn [8]; [21]): 10 | Barnyardgrass plant response rating (barnyardgrass [9]; [18]): 50 | Plant response rating, Barnyardgrass (barnyardgrass [9]; [22]): 100 | Crabgrass, Large plant response rating (large (Lg) crabgrass [10]; [18]): 90 | Plant response rating, Crabgrass, Large (large (Lg) crabgrass [10]; [22]): 100 | Foxtail, Giant plant response rating (giant foxtail [11]; [18]): 70 | Plant response rating, Foxtail, Giant (giant foxtail [11]; [22]): 90 | Morningglory plant response rating (morningglory [12]; [18]): 70 | Plant response rating, Morningglory (morningglory [12]; [22]): 100 | Pigweed plant response rating (pigweed [13]; [18]): 100 | Plant response rating, Pigweed (pigweed [13]; [22]): 100 | Velvetleaf plant response rating (velvetleaf [14]; [18]): 100 | Plant response rating, Velvetleaf (velvetleaf [14]; [22]): 100 | Wheat plant response rating (wheat [15]; [18]): 0 | Plant response rating, Wheat (wheat [15]; [22]): 70 | Corn plant response rating (corn [16]; [18]): 20 | Plant response rating, Corn (corn [16]; [22]): 70 | Plant response rating, Rice (rice): 0 | Plant response rating, Sedge, Umbrella (sedge, umbrella): 85 | Plant response rating, Ducksalad (Heteranthera limosa): 100 | Plant response rating, Barnyardgrass (barnyardgrass [17]): 0

N#Cc1cccc(Oc2ncc(Cl)cn2)c1-n1cc([N+](=O)[O-])cn1 [Compound 304]
Barnyardgrass plant response rating (0 to 100 scale, 0 is no effect, 100 is complete control) (barnyardgrass [1]; 125 g ai/ha): 0 | Barnyardgrass plant response rating (barnyardgrass [1]; [21]): 0 | Crabgrass, Large plant response rating (0 to 100 scale) (large (Lg) crabgrass [2]; 125 g ai/ha): 0 | Crabgrass, Large plant response rating (large (Lg) crabgrass [2]; [21]): 10 | Foxtail, Giant plant response rating (0 to 100 scale) (giant foxtail [3]; 125 g ai/ha): 0 | Foxtail, Giant plant response rating (giant foxtail [3]; [21]): 0 | Morningglory plant response rating (0 to 100 scale) (morningglory [4]; 125 g ai/ha): 0 | Morningglory plant response rating (morningglory [4]; [21]): 0 | Pigweed plant response rating (0 to 100 scale) (pigweed [5]; 125 g ai/ha): 0 | Pigweed plant response rating (pigweed [5]; [21]): 0 | Velvetleaf plant response rating (0 to 100 scale) (velvetleaf [6]; 125 g ai/ha): 0 | Velvetleaf plant response rating (velvetleaf [6]; [21]): 0 | Wheat plant response rating (0 to 100 scale) (wheat [7]; 125 g ai/ha): 0 | Wheat plant response rating (wheat [7]; [21]): 0 | Corn plant response rating (0 to 100 scale) (corn [8]; 125 g ai/ha): 0 | Corn plant response rating (corn [8]; [21]): 0 | Plant response rating, Barnyardgrass (barnyardgrass [9]; [23]): 0 | Plant response rating, Barnyardgrass (barnyardgrass [9]; [22]): 0 | Plant response rating, Crabgrass, Large (large (Lg) crabgrass [10]; [23]): 0 | Plant response rating, Crabgrass, Large (large (Lg) crabgrass [10]; [22]): 0 | Plant response rating, Foxtail, Giant (giant foxtail [11]; [23]): 0 | Plant response rating, Foxtail, Giant (giant foxtail [11]; [22]): 0 | Plant response rating, Morningglory (morningglory [12]; [23]): 0 | Plant response rating, Morningglory (morningglory [12]; [22]): 0 | Plant response rating, Pigweed (pigweed [13]; [23]): 30 | Plant response rating, Pigweed (pigweed [13]; [22]): 50 | Plant response rating, Velvetleaf (velvetleaf [14]; [23]): 0 | Plant response rating, Velvetleaf (velvetleaf [14]; [22]): 0 | Plant response rating, Wheat (wheat [15]; [23]): 0 | Plant response rating, Wheat (wheat [15]; [22]): 0 | Plant response rating, Corn (corn [16]; [23]): 0 | Plant response rating, Corn (corn [16]; [22]): 0 | Plant response rating, Rice (rice): 0 | Plant response rating, Sedge, Umbrella (sedge, umbrella): 0 | Plant response rating, Ducksalad (Heteranthera limosa): 0 | Plant response rating, Barnyardgrass (barnyardgrass [17]): 0

O=Cc1cccc(Oc2ncc(Cl)cn2)c1-n1cc(Cl)cn1 [Compound 205]
Barnyardgrass plant response rating (0 to 100 scale, 0 is no effect, 100 is complete control) (barnyardgrass [1]; 125 g ai/ha): 0 | Barnyardgrass plant response rating (barnyardgrass [1]; [21]): 0 | Crabgrass, Large plant response rating (0 to 100 scale) (large (Lg) crabgrass [2]; 125 g ai/ha): 0 | Crabgrass, Large plant response rating (large (Lg) crabgrass [2]; [21]): 0 | Foxtail, Giant plant response rating (0 to 100 scale) (giant foxtail [3]; 125 g ai/ha): 0 | Foxtail, Giant plant response rating (giant foxtail [3]; [21]): 0 | Morningglory plant response rating (0 to 100 scale) (morningglory [4]; 125 g ai/ha): 0 | Morningglory plant response rating (morningglory [4]; [21]): 0 | Pigweed plant response rating (0 to 100 scale) (pigweed [5]; 125 g ai/ha): 0 | Pigweed plant response rating (pigweed [5]; [21]): 10 | Velvetleaf plant response rating (0 to 100 scale) (velvetleaf [6]; 125 g ai/ha): 0 | Velvetleaf plant response rating (velvetleaf [6]; [21]): 10 | Wheat plant response rating (0 to 100 scale) (wheat [7]; 125 g ai/ha): 0 | Wheat plant response rating (wheat [7]; [21]): 0 | Corn plant response rating (0 to 100 scale) (corn [8]; 125 g ai/ha): 0 | Corn plant response rating (corn [8]; [21]): 0 | Barnyardgrass plant response rating (barnyardgrass [9]; [18]): 0 | Plant response rating, Barnyardgrass (barnyardgrass [9]; [22]): 0 | Crabgrass, Large plant response rating (large (Lg) crabgrass [10]; [18]): 0 | Plant response rating, Crabgrass, Large (large (Lg) crabgrass [10]; [22]): 0 | Foxtail, Giant plant response rating (giant foxtail [11]; [18]): 0 | Plant response rating, Foxtail, Giant (giant foxtail [11]; [22]): 0 | Morningglory plant response rating (morningglory [12]; [18]): 0 | Plant response rating, Morningglory (morningglory [12]; [22]): 0 | Pigweed plant response rating (pigweed [13]; [18]): 0 | Plant response rating, Pigweed (pigweed [13]; [22]): 0 | Velvetleaf plant response rating (velvetleaf [14]; [18]): 10 | Plant response rating, Velvetleaf (velvetleaf [14]; [22]): 20 | Wheat plant response rating (wheat [15]; [18]): 0 | Plant response rating, Wheat (wheat [15]; [22]): 0 | Corn plant response rating (corn [16]; [18]): 0 | Plant response rating, Corn (corn [16]; [22]): 0 | Plant response rating, Rice (rice): 0 | Plant response rating, Sedge, Umbrella (sedge, umbrella): 0 | Plant response rating, Ducksalad (Heteranthera limosa): 0 | Plant response rating, Barnyardgrass (barnyardgrass [17]): 0
